This is an account of results in patent US20220009920A1 (GB005, Inc., priority 2020, published 2022).

Usually inhibition stands for the drop in the measured response relative to a control, in per cent.

Holding throughout (test): Large panel kinase profiling
Format in all cases: biochemical
What all share (conditions): 1 μM test article, 1 mM ATP

One assay deals with T1, MAPKAPK5/MK5 (Homo sapiens, UniProt Q8IW41).
T1 construct: AssayQuant Technologies, Inc. (service provider)
T1 sequence (Q8IW41 1-473): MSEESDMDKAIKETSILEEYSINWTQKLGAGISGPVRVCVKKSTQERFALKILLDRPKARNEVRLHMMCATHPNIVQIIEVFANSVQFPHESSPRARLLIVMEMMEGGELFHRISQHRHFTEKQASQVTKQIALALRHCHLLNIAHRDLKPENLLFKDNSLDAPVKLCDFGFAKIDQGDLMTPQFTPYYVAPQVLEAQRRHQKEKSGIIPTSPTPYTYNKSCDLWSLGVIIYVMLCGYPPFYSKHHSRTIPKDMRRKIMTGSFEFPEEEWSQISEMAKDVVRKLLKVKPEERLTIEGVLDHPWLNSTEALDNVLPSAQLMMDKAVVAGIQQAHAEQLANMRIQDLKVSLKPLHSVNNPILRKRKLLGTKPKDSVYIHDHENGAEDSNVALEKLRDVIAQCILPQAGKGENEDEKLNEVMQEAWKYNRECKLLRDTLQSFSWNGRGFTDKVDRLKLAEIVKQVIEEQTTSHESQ
A digest of the protocol: (§1)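 Continuous-read kinase assay: chelation-sensor peptide, 1 mM ATP, compound at 1 μM. Plates kept at 30° C.; fluorescence sampled at 1-min intervals (360/485 nm).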

The next assay deals with PTK2 (Homo sapiens, UniProt Q05397). Put shortly:
as §1

Another assay has as its target IRAK1 (Homo sapiens, UniProt P51617). A digest of the protocol: as §1
The next assay has as its target T2, INSR (Homo sapiens, UniProt P06213).
T2 construct: AssayQuant Technologies, Inc. (service provider)
Put shortly: as §1

Another assay concerns the target T3, STK17B/DRAK2 (Homo sapiens, UniProt O94768).
T3 construct: AssayQuant Technologies, Inc. (contract assay)
T3 sequence (O94768 1-372): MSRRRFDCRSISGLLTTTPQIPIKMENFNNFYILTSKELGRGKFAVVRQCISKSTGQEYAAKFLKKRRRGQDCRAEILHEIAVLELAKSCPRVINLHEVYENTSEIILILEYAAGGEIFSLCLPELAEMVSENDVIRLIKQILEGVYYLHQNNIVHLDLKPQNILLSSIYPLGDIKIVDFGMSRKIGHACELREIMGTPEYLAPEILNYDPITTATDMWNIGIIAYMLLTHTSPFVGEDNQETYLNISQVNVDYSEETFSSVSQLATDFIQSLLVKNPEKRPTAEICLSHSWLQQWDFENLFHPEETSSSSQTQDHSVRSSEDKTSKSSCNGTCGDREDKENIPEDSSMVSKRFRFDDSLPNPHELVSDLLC
A digest of the protocol: as §1

Another assay deals with PRKAA2/AMPK221 (Homo sapiens, UniProt P54646). A digest of the protocol: as §1
A further assay addresses T4, GRK2 (Homo sapiens, UniProt P25098).
T4 construct: AssayQuant Technologies, Inc. (service provider)
T4 sequence (P25098 1-689): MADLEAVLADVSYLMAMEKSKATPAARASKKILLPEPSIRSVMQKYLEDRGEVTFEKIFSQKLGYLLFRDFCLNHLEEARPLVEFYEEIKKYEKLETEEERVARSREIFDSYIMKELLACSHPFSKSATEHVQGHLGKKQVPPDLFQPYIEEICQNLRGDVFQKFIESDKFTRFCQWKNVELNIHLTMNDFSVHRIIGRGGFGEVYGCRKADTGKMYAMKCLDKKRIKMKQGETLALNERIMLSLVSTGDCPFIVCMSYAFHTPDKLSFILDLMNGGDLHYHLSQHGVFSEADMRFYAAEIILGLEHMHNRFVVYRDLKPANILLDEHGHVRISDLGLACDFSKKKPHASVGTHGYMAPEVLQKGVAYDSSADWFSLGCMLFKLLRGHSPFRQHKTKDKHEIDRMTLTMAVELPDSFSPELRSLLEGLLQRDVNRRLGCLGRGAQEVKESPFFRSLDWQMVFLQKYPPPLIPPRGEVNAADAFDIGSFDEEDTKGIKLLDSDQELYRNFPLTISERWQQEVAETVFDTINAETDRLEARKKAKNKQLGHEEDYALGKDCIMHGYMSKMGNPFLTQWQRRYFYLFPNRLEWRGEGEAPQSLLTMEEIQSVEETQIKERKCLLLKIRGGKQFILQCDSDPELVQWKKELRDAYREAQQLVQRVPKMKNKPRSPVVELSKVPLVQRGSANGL
A digest of the protocol: as §1

In the next assay the target is ALK (Homo sapiens, UniProt Q9UM73). Put shortly: as §1
ALK, sequence (Q9UM73 19-1620): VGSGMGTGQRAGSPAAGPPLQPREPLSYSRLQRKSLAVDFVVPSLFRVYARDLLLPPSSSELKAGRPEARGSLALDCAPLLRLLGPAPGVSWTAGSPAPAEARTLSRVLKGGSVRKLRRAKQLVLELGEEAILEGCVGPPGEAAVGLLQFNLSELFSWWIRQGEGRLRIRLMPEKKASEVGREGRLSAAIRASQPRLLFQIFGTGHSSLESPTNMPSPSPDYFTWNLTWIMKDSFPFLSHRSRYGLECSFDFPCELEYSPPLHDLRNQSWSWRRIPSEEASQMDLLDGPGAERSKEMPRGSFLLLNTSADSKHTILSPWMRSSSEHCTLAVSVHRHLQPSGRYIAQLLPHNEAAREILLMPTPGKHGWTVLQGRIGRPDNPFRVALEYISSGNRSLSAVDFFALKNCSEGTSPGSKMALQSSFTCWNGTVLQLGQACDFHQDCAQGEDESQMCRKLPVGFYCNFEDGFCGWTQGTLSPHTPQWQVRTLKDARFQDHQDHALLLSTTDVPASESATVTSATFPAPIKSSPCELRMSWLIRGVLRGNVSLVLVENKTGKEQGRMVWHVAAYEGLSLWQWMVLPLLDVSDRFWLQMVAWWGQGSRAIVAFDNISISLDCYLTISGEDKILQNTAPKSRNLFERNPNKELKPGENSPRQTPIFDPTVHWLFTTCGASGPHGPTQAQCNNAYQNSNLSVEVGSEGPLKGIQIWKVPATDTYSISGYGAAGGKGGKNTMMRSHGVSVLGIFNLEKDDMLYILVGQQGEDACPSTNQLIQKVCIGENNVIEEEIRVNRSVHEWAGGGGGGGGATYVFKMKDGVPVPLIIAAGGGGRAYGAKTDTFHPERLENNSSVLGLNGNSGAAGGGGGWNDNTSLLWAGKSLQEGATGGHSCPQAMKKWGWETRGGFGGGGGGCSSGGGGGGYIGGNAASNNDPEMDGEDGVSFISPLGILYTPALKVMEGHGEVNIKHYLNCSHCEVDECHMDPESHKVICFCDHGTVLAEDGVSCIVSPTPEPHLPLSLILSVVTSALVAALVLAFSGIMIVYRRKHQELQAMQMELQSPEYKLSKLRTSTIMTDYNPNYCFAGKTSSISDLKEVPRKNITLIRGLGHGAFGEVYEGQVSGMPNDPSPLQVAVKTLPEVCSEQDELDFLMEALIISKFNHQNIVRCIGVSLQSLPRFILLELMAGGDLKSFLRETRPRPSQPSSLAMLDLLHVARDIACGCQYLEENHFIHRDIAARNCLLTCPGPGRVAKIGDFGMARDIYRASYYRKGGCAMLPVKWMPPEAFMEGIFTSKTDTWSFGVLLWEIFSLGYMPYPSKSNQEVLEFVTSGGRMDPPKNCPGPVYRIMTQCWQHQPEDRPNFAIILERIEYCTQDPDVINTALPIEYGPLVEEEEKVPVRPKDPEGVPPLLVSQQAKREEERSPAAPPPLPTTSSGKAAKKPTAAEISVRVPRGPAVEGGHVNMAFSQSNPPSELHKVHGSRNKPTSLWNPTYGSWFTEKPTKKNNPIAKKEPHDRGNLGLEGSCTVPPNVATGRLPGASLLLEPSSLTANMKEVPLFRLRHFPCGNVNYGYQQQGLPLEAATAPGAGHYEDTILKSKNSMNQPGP

PTK2, sequence (Q05397 whole entry, species assumed): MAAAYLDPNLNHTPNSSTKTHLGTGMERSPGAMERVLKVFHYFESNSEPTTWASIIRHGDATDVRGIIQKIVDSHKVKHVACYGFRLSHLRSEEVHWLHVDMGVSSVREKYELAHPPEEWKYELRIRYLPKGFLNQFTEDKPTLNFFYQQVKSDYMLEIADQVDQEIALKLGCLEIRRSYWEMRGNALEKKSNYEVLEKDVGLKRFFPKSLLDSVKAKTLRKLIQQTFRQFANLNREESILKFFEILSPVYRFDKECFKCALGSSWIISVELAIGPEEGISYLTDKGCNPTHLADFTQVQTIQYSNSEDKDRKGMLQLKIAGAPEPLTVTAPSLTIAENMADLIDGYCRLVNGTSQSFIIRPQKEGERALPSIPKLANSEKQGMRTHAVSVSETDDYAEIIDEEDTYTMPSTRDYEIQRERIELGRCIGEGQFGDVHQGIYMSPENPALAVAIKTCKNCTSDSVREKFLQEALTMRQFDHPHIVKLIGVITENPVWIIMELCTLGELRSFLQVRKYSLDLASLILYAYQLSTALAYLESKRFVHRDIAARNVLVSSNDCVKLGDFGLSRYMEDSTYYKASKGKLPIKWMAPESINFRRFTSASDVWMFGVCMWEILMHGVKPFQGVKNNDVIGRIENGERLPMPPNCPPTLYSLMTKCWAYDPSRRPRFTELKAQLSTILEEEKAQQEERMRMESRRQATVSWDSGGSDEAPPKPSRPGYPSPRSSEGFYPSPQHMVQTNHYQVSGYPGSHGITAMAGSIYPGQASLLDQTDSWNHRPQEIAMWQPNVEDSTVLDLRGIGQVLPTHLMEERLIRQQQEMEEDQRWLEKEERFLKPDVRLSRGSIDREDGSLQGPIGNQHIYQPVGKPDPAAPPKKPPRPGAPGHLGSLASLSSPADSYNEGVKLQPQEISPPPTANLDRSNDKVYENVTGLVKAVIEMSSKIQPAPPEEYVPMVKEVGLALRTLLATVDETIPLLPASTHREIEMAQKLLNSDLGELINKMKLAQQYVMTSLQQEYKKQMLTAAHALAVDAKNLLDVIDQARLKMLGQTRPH
T2 sequence (P06213 28-1382, species assumed): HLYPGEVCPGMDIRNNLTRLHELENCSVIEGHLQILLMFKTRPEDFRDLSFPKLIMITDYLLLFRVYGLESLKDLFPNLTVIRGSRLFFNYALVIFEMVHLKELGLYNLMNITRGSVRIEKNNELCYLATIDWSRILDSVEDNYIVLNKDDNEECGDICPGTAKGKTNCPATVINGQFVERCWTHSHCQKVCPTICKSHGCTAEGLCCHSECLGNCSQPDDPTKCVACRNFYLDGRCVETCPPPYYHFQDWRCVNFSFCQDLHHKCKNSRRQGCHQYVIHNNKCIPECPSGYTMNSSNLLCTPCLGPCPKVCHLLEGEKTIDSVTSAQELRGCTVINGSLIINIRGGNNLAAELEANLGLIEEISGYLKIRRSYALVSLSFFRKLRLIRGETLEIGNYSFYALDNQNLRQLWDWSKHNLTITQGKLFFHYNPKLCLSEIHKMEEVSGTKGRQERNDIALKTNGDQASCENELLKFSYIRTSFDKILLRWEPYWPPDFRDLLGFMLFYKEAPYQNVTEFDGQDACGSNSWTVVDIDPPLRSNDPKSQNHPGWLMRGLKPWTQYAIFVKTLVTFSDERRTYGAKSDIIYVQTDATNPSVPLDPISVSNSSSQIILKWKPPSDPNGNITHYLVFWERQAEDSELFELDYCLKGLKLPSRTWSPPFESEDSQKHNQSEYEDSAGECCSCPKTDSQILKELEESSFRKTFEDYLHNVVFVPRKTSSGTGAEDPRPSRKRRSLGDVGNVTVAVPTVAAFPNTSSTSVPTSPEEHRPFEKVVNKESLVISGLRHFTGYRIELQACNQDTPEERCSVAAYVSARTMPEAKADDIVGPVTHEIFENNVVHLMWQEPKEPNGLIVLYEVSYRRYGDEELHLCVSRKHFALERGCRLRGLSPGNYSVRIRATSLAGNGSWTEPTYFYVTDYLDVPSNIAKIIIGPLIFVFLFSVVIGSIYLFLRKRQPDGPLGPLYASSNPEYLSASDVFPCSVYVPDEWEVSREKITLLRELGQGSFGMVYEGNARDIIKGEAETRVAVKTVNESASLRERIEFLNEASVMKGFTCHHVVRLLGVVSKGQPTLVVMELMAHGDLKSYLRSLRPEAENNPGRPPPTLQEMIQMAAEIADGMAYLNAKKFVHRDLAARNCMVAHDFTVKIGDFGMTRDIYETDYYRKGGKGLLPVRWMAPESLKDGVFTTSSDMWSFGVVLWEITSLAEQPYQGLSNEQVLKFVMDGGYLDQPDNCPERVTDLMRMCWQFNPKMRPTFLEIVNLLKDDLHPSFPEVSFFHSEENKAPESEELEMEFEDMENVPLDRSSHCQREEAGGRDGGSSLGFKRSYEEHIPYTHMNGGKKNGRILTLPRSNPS
IRAK1, sequence (P51617 whole entry, species assumed): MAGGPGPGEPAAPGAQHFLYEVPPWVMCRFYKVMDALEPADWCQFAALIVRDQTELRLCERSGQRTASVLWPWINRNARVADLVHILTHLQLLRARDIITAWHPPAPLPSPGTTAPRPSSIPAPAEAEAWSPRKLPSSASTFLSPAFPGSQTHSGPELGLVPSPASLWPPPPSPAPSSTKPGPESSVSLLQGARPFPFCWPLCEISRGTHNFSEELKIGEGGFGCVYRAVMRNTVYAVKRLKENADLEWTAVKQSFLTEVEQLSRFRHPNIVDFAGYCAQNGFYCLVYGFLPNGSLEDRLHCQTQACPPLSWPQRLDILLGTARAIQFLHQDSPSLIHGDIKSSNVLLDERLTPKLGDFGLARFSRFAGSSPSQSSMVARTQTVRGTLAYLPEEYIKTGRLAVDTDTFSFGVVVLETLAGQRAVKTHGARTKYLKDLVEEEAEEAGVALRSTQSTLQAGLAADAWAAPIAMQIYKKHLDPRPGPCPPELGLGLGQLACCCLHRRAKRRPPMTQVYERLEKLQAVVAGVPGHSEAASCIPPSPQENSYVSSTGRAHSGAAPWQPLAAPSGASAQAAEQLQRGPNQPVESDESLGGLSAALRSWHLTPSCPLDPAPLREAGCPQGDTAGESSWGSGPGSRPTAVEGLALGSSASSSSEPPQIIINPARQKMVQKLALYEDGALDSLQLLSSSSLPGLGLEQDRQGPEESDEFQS

`C=CC(=O)N1CCCC(c2c(F)cc(C(N)=O)c3[nH]c4c(c23)CCCCC4)C1` (single isomer, unassigned) [Compound 5-6]: the inhibition at 1 µM against MAPKAPK5/MK5 was 3.7%; on PTK2, -69.1%; at IRAK1, -28.6%; on INSR it was 10.3%; on STK17B/DRAK2, 0.3%; against PRKAA2/AMPK221 it was -17.9%. The inhibition at 1 µM against GRK2 was -14.8%; against ALK it was -26.4%.

On to `C=CC(=O)N1CCC[C@@H](c2c(F)cc(C(N)=O)c3[nH]c4c(c23)CC2(CC4)CC2)C1` [Compound 6-2, (S)-5-(1-acryloylpiperidin-3-yl)-6-fluoro-1,2,4,9-tetrahydrospiro[carbazole-3,1′-cyclopropane]-8-carboxamide], for which the inhibition at 1 µM is 8.6% at MAPKAPK5/MK5; 16.5% on PTK2; 5.6% on IRAK1; -6.6% against INSR; -26.9% against STK17B/DRAK2; 11.7% at PRKAA2/AMPK221. Also, the inhibition at 1 µM against GRK2 is -10.5%; against ALK, 11.7%.

For the compound `C=CC(=O)N1CCC[C@@H](c2c(F)cc(C(N)=O)c3[nH]c4c(c23)CCC4)C1` [Compound 10-2, (S)-8-(1-acryloylpiperidin-3-yl)-7-fluoro-1,2,3,4-tetrahydrocyclo-penta[b]indole-5-carboxamide], the inhibition at 1 µM at MAPKAPK5/MK5 was -12.6%; at PTK2 it was -14.6%; on IRAK1, 7.8%; at INSR, -6%; against STK17B/DRAK2 it was -23.7%; against PRKAA2/AMPK221, 32.1%. Further, the values for the inhibition at 1 µM against GRK2 and against ALK were -1.6% and -2.7%, respectively.
